# Results reported in the supplement of paper PMC10307832.
# Experiments:
# Assay in all cases: relative viability (nuclei count vs DMSO), 5 days (fraction); higher = more cells survive
# KN-93 + Navitoclax = compound: CN(C/C=C/C1=CC=C(C=C1)Cl)CC2=CC=CC=C2N(CCO)S(=O)(=O)C3=CC=C(C=C3)OC [KN-93] + CC1(C)CCC(c2ccc(Cl)cc2)=C(CN2CCN(c3ccc(C(=O)NS(=O)(=O)c4ccc(N[C@H](CCN5CCOCC5)CSc5ccccc5)c(S(=O)(=O)C(F)(F)F)c4)cc3)CC2)C1 [Navitoclax] (partner 0.5 µM)
# In short: (§1)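 Medians of duplicate plates are given as relative viability. That measure is the nuclei count in treated wells divided by the count in vehicle wells. Counts were taken on 4× images of lung cancer cell lines in 1536-well plates, 5 days after pin-tool dosing the day after seeding with one drug alone or a fixed anchor-drug dose plus five library-drug doses (not always all listed) in √10 steps.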
# KN-93 + Foretinib = compound: CN(C/C=C/C1=CC=C(C=C1)Cl)CC2=CC=CC=C2N(CCO)S(=O)(=O)C3=CC=C(C=C3)OC [KN-93] + COc1cc2c(Oc3ccc(NC(=O)C4(C(=O)Nc5ccc(F)cc5)CC4)cc3F)ccnc2cc1OCCCN1CCOCC1 [Foretinib] (partner 0.25 µM)
# In short: as §1
# KN-93 + Tozasertib = compound: CN(C/C=C/C1=CC=C(C=C1)Cl)CC2=CC=CC=C2N(CCO)S(=O)(=O)C3=CC=C(C=C3)OC [KN-93] + Cc1cc(Nc2cc(N3CCN(C)CC3)nc(Sc3ccc(NC(=O)C4CC4)cc3)n2)n[nH]1 [Tozasertib] (partner 0.1 µM)
# In short: as §1
# KN-93 + Decitabine = compound: CN(C/C=C/C1=CC=C(C=C1)Cl)CC2=CC=CC=C2N(CCO)S(=O)(=O)C3=CC=C(C=C3)OC [KN-93] + Nc1ncn([C@H]2C[C@H](O)[C@@H](CO)O2)c(=O)n1 [Decitabine] (partner 2 µM)
# In short: as §1
# KN-93 + Dasatinib = compound: CN(C/C=C/C1=CC=C(C=C1)Cl)CC2=CC=CC=C2N(CCO)S(=O)(=O)C3=CC=C(C=C3)OC [KN-93] + Cc1nc(Nc2ncc(C(=O)Nc3c(C)cccc3Cl)s2)cc(N2CCN(CCO)CC2)n1 [Dasatinib] (partner 0.075 µM)
# In short: as §1
Cell Line,relative viability (KN-93 + Navitoclax; first compound 0.08 µM),relative viability (KN-93 + Navitoclax; first compound 0.253 µM),relative viability (KN-93 + Navitoclax; first compound 2.53 µM),relative viability (KN-93 + Navitoclax; first compound 8 µM),relative viability (KN-93 + Foretinib; first compound 0.08 µM),relative viability (KN-93 + Foretinib; first compound 0.253 µM),relative viability (KN-93 + Foretinib; first compound 2.53 µM),relative viability (KN-93 + Foretinib; first compound 8 µM),relative viability (KN-93 + Tozasertib; first compound 0.08 µM),relative viability (KN-93 + Tozasertib; first compound 0.253 µM),relative viability (KN-93 + Tozasertib; first compound 2.53 µM),relative viability (KN-93 + Tozasertib; first compound 8 µM),relative viability (KN-93 + Decitabine; first compound 0.08 µM),relative viability (KN-93 + Decitabine; first compound 0.253 µM),relative viability (KN-93 + Decitabine; first compound 2.53 µM),relative viability (KN-93 + Decitabine; first compound 8 µM),relative viability (KN-93 + Dasatinib; first compound 0.08 µM),relative viability (KN-93 + Dasatinib; first compound 0.253 µM),relative viability (KN-93 + Dasatinib; first compound 2.53 µM),relative viability (KN-93 + Dasatinib; first compound 8 µM)
LU99A,0.86,0.787,0.763,0.609,0.884,0.896,0.817,0.676,0.239,0.287,0.246,0.212,0.777,0.893,0.859,0.711,0.479,0.59,0.419,0.406
LXF-289,0.97,1.08,0.918,0.631,0.982,1.01,0.944,0.805,0.201,0.25,0.215,0.147,0.391,0.413,0.416,0.388,0.238,0.197,0.229,0.141
NCI-H23,0.721,0.988,0.933,0.816,0.935,1.13,1.1,0.666,0.327,0.359,0.439,0.267,0.849,0.306,0.296,0.288,0.64,0.84,0.818,0.439
NCI-H322M,1.19,1.09,1.2,1.11,0.959,0.933,0.984,0.762,0.505,0.502,0.524,0.489,0.733,0.725,0.69,0.699,0.256,0.25,0.26,0.204
NCI-H441,–,0.573,0.747,0.238,1.08,1.23,1.2,0.73,0.639,0.806,0.553,0.435,–,0.203,0.261,0.197,0.758,0.639,0.617,0.458
NCI-H460,0.39,1.29,–,0.63,0.715,1.06,1.02,0.591,0.397,0.104,0.381,0.153,0.282,0.409,0.579,0.46,0.489,0.526,0.726,0.35
NCI-H520,–,1.13,1.23,0.878,0.885,0.952,0.768,0.711,0.455,0.447,0.459,0.382,0.596,0.599,0.538,0.458,0.203,0.197,0.258,0.155
NCI-H596,0.996,0.891,0.966,0.575,0.862,0.989,0.886,0.532,0.783,1.02,1.06,0.747,1.03,1.19,1.08,0.824,0.607,0.642,0.587,0.421
NCI-H647,0.976,1.41,1.39,0.715,1.11,1.37,1.54,1.07,0.31,0.299,0.0549,0.196,0.373,0.487,0.444,0.409,0.161,0.216,0.253,0.164
NCI-H727,0.464,0.4,0.285,0.17,1.04,0.945,0.863,0.553,0.689,0.658,0.465,0.447,0.795,–,0.816,0.827,0.44,0.399,0.415,0.237
NCI-H838,1.04,1.06,1.31,0.946,0.946,0.977,1.13,0.905,0.256,0.257,0.252,0.235,0.436,0.455,0.487,0.427,0.32,0.236,0.334,0.239
NCI-H1355,0.874,0.722,0.916,0.74,0.879,0.984,1.03,0.868,0.51,0.451,0.481,0.31,0.367,0.298,0.317,0.315,0.588,0.551,0.695,0.503
NCI-H1395,1.11,1.22,1.34,0.566,1.09,0.934,0.964,0.697,0.733,0.671,0.8,0.476,0.713,0.739,0.745,0.615,0.428,0.402,0.708,0.31
NCI-H1437,0.92,1.23,1.07,0.476,1.17,1.26,1.13,0.64,0.37,0.433,0.383,0.264,0.519,0.768,0.533,0.405,0.457,0.44,0.374,0.153
NCI-H1650,1.24,1.2,1.44,0.951,1.18,1.16,1.25,0.644,0.39,0.339,0.382,0.309,0.349,0.38,0.427,0.44,0.399,0.262,0.297,0.24
NCI-H1651,0.997,1.08,1.09,0.482,0.669,0.845,0.886,0.582,0.647,0.627,0.906,0.509,0.594,0.597,0.623,0.534,0.491,0.461,0.626,0.246
NCI-H1666,0.863,0.799,0.982,0.863,0.85,0.996,1.01,0.959,0.599,0.662,0.57,0.454,0.705,0.716,0.783,0.748,0.842,0.924,0.889,0.645
NCI-H1734,0.649,0.964,0.816,0.622,0.72,0.847,0.734,0.585,0.254,0.27,0.264,0.215,0.465,0.596,0.502,0.442,0.478,0.544,0.577,0.358
NCI-H1755,0.844,1.03,1.07,0.815,0.993,0.924,0.921,0.794,0.625,0.604,0.584,0.468,0.752,0.723,0.696,0.703,0.392,0.407,0.384,0.255
NCI-H1793,–,0.398,0.385,0.244,0.729,0.799,0.642,0.287,0.305,0.23,0.315,0.258,0.595,0.494,0.465,0.43,0.406,0.374,0.407,0.169
NCI-H1915,0.736,0.813,0.823,0.742,0.952,1.23,1.25,0.912,0.388,0.446,0.413,0.308,0.274,0.261,0.26,0.246,0.354,0.343,0.305,0.225
NCI-H1944,1.09,1.01,1.04,0.896,0.831,0.835,0.709,0.557,0.269,0.221,0.257,0.218,0.45,0.414,0.413,0.395,0.235,0.22,0.213,0.154
NCI-H1975,0.797,1.36,1.26,0.756,0.848,1.11,0.972,0.475,0.702,0.849,0.676,0.146,0.389,0.361,0.412,0.272,0.339,0.336,0.351,0.224
NCI-H1993,0.939,0.71,0.861,0.632,0.774,0.78,0.808,0.672,0.563,0.552,0.593,0.519,0.573,0.548,0.579,0.601,0.518,0.547,0.55,0.47
NCI-H2009,1.16,1.21,1.23,0.869,1.2,1.37,1.29,0.914,0.689,0.764,0.692,0.493,0.421,0.393,0.399,0.317,0.326,0.29,0.236,0.159
NCI-H2023,1,1.22,1.05,0.789,0.935,–,0.981,0.627,0.363,0.337,0.483,0.178,0.189,0.239,0.219,0.201,0.494,0.472,0.647,0.244
NCI-H2085,1.04,1.21,1.23,0.867,1,0.994,1.05,0.664,0.667,0.662,0.873,0.369,0.581,0.502,0.516,0.496,0.237,0.254,0.231,0.268
NCI-H2087,0.931,0.948,0.982,0.527,0.983,1.31,1.21,0.697,0.248,0.238,0.267,0.152,0.28,0.235,0.273,0.155,0.793,1.38,0.882,0.622
NCI-H2126,0.814,0.785,0.929,0.809,1.14,0.899,1.23,1.11,0.858,0.805,0.862,0.554,0.51,0.522,0.656,0.475,0.565,0.468,0.578,0.364
NCI-H2170,0.537,0.606,0.542,0.563,0.973,1.23,0.903,0.892,0.755,0.845,0.729,0.454,0.468,0.501,0.49,0.436,0.501,0.55,0.718,0.266
